Calls of active or inactive are those of the source. The calls are words filed in the database; no cut-off is given here.
Columns and labels:
SW-620 [1] = test: In vivo inhibition of ATM in BALB/c mouse model xenografted with human SW620 cells assessed as inhibition of ATM phosphorylation at 5 mg/kg, ip administered once daily and measured after 23 days in the presence of CPT-11 by Western blot analysis; type: functional, organism-based; details: time 23.0 day
HCT-116 [2] = test: Induction of apoptosis in human HCT-116 cells assessed as late apoptotic cells at 30 nM measured after 72 hrs in presence of CPT-11 by Annexin V-FITC staining based flow cytometric analysis (reference value: 19.80%); type: functional
[3] = molecular target: PI3-kinase p110-delta/p85-alpha (Homo sapiens, UniProt O00329); test: Inhibition of human PI3K p110 delta/p85 alpha using phosphatidylinositol-4, 5-bisphosphate as substrate incubated for 30 mins in the presence of Mg/ATP mix by HTRF-based analysis; type: protein-complex assay
SW-620 [4] = test: Anticancer activity against human SW620 cells assessed as reduction in cell viability by measuring fold change in CPT-11 IC50 at 100 nM incubated for 5 days by MTT assay relative irinotecan alone; type: functional; details: time 5 day
HCT-116 [5] = test: Induction of apoptosis in human HCT-116 cells assessed as early apoptotic cells at 100 nM measured after 72 hrs in presence of CPT-11 by Annexin V-FITC staining based flow cytometric analysis (reference value: 4.06%); type: functional
SW-620 [6] = test: Radiosensitizing activity against human SW620 cells assessed as reduction in colony formation at 27 nM incubated after 14 days in the presence of 3 Gy irradiation by crystal violet staining based analysis; type: functional, cell-based; details: time 14.0 day
SW-620 [7] = test: Radiosensitizing activity against human SW620 cells assessed as reduction in colony formation at 9 nM incubated after 14 days in the presence of 3 Gy irradiation by crystal violet staining based analysis; type: functional, cell-based; details: time 14.0 day
[8] = Toxicity in BALB/c mouse xenografted with human SW620 cells assessed as heart damage at 5 mg/kg, ip administered once daily and measured after 23 days by H&E staining based microscopic analysis; type: organism-based, SW-620; details: in vivo, 552 h, time 23 day
SW-620 [9] = test: Induction of apoptosis in human SW620 cells assessed as necrotic cells at 100 nM measured after 72 hrs by Annexin V-FITC staining based flow cytometric analysis (reference value: 5.83%); type: functional
[10] = Toxicity in BALB/c mouse xenografted with human SW620 cells assessed as liver damage at 5 mg/kg, ip administered once daily and measured after 23 days by H&E staining based microscopic analysis; type: organism-based, SW-620; details: in vivo, 552 h, time 23 day
[11] = molecular target: Phosphatidylinositol 4,5-bisphosphate 3-kinase catalytic subunit gamma isoform (Homo sapiens, UniProt P48736); test: Inhibition of human PI3K p120 gamma using phosphatidylinositol-4, 5-bisphosphate as substrate incubated for 30 mins in the presence of Mg/ATP mix by HTRF-based analysis
HCT-116 [12] = test: Induction of apoptosis in human HCT-116 cells assessed as late apoptotic cells at 10 nM measured after 72 hrs in presence of CPT-11 by Annexin V-FITC staining based flow cytometric analysis (reference value: 19.80%); type: functional
SW-620 [13] = test: Antiproliferative activity against human SW620 cells assessed as reduction in colony formation at 9 nM measured after 14 days by crystal violet staining based microscopic analysis; type: functional, cell-based; details: time 14.0 day
[14] = molecular target: T1, Serine/threonine-protein kinase Chk1 (Homo sapiens) (UniProt O14757); test: Inhibition of CPT-11 induced Chk1 phosphorylation in human SW620 cells by SDS-PAGE based Westernblot analysis; type: cell-based
T1 sequence (whole entry): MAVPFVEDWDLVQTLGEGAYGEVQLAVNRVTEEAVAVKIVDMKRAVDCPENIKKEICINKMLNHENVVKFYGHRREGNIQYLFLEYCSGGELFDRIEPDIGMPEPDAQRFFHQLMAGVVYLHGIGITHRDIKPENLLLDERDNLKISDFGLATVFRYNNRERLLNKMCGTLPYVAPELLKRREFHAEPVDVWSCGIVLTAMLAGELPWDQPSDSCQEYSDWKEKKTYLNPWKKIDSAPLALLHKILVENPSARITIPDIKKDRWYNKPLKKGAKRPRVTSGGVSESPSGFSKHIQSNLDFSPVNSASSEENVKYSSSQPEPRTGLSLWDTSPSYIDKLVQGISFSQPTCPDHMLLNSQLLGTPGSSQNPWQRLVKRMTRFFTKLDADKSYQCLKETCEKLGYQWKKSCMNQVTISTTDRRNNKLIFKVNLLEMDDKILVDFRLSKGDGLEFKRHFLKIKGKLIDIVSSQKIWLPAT

HCT-116 [15] = test: Induction of apoptosis in human HCT-116 cells assessed as viable cells at 100 nM measured after 72 hrs by Annexin V-FITC staining based flow cytometric analysis (reference value: 73.74%); type: functional; details: read-out: Activity
SW-620 [16] = test: In vivo inhibition of ATM in BALB/c mouse model xenografted with human SW620 cells assessed as inhibition of Chk2 phosphorylation at 5 mg/kg, ip administered once daily and measured after 23 days in the presence of CPT-11 by Western blot analysis; type: functional, organism-based; details: time 23.0 day
PI3K p110 beta/p85 alpha = PI3K p110 beta/p85 alpha (Homo sapiens, UniProt P42338); test: Inhibition of human PI3K p110 beta/p85 alpha using phosphatidylinositol-4, 5-bisphosphate as substrate incubated for 30 mins in the presence of Mg/ATP mix by HTRF-based analysis; type: protein-complex assay
SW-620 [17] = test: Induction of apoptosis in human SW620 cells assessed as late apoptotic cells at 100 nM measured after 72 hrs in presence of CPT-11 by Annexin V-FITC staining based flow cytometric analysis (reference value: 5.75%); type: functional
SW-620 [18] = test: Induction of apoptosis in human SW620 cells assessed as viable cells at 30 nM measured after 72 hrs in presence of CPT-11 by Annexin V-FITC staining based flow cytometric analysis (reference value: 87.36%); type: functional; details: read-out: Activity
SW-620 [19] = test: Induction of apoptosis in human SW620 cells assessed as necrotic cells at 100 nM measured after 72 hrs in presence of CPT-11 by Annexin V-FITC staining based flow cytometric analysis (reference value: 5.83%); type: functional
HCT-116 [20] = test: Induction of apoptosis in human HCT-116 cells assessed as viable cells at 30 nM measured after 72 hrs in presence of CPT-11 by Annexin V-FITC staining based flow cytometric analysis (reference value: 73.74%); type: functional; details: read-out: Activity
HCT-116 [21] = test: Induction of apoptosis in human HCT-116 cells assessed as viable cells at 1 uM measured after 72 hrs by Annexin V-FITC staining based flow cytometric analysis (reference value: 73.74%); type: functional; details: read-out: Activity
SW-620 [22] = test: Induction of apoptosis in human SW620 cells assessed as early apoptotic cells at 10 nM measured after 72 hrs in presence of CPT-11 by Annexin V-FITC staining based flow cytometric analysis (reference value: 1.06%); type: functional
[23] = molecular target: Serine/threonine-protein kinase Chk2 (Homo sapiens) (UniProt O96017); test: Inhibition of CPT-11 induced Chk2 phosphorylation in human SW620 cells by SDS-PAGE based Westernblot analysis; type: cell-based
HCT-116 [24] = test: Induction of apoptosis in human HCT-116 cells assessed as necrotic cells at 10 nM measured after 72 hrs in presence of CPT-11 by Annexin V-FITC staining based flow cytometric analysis (reference value: 2.41%); type: functional

Serine/threonine-protein kinase Chk2 (Homo sapiens), sequence (O96017 whole entry): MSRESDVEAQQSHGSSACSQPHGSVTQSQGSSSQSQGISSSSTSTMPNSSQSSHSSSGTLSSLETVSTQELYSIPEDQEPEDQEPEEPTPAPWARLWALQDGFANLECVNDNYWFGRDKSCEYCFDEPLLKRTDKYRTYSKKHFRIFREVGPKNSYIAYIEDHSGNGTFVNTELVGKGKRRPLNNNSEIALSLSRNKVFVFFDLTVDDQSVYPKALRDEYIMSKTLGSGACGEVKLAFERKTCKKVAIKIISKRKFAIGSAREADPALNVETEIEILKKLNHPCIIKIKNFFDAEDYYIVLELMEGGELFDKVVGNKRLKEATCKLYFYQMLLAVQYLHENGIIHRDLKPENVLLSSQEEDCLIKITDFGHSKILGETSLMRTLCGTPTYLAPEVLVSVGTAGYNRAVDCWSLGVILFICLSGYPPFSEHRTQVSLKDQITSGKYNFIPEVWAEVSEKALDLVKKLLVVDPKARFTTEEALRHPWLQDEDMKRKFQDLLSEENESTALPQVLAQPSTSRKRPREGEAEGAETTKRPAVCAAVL
Phosphatidylinositol 4,5-bisphosphate 3-kinase catalytic subunit gamma isoform, sequence (P48736 whole entry, canonical isoform): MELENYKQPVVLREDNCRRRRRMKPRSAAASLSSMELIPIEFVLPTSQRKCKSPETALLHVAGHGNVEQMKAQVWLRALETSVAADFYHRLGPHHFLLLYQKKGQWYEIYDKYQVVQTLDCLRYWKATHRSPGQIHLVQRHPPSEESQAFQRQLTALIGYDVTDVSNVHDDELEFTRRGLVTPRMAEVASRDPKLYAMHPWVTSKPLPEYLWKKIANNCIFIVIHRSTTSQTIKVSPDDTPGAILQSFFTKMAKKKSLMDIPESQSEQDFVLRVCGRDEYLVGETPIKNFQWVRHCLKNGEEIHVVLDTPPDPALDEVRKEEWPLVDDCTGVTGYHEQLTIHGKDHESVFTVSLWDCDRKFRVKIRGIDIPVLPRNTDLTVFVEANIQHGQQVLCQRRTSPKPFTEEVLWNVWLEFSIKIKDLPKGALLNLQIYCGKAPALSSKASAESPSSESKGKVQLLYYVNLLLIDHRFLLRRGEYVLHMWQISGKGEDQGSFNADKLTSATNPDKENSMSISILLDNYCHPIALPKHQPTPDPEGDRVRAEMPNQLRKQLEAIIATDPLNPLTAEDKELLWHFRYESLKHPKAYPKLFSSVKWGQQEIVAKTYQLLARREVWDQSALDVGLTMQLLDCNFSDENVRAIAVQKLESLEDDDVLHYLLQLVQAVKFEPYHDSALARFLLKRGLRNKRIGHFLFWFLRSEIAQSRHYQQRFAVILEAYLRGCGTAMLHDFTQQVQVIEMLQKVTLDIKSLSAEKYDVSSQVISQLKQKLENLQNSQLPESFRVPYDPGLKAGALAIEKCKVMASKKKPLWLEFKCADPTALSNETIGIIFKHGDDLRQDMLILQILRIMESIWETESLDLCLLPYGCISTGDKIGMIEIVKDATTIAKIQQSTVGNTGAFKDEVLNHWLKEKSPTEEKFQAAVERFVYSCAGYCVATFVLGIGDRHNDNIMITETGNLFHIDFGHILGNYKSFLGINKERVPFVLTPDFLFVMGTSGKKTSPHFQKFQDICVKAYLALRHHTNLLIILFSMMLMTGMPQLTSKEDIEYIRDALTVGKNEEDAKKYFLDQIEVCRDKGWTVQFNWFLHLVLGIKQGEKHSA
PI3K p110 beta/p85 alpha, sequence (P27986 whole entry): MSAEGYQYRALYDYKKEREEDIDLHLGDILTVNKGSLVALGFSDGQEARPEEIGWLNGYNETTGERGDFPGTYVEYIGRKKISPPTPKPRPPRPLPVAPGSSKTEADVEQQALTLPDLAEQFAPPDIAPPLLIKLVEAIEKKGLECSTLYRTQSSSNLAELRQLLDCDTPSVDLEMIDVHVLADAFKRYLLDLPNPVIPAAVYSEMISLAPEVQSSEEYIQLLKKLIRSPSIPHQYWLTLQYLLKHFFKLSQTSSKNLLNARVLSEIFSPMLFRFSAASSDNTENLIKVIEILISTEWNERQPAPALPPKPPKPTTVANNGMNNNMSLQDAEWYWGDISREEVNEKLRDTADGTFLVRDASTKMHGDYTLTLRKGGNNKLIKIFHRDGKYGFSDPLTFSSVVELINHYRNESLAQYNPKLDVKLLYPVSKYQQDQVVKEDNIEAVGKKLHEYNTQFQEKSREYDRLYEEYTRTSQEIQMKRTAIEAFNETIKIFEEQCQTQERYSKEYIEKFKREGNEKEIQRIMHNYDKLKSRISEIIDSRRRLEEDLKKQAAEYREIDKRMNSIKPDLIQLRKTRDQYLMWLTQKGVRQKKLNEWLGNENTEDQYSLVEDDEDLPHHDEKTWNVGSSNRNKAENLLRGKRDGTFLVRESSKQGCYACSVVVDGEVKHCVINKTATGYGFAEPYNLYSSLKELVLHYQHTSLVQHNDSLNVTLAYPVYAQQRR
PI3K p110 beta/p85 alpha, sequence (P42338 whole entry): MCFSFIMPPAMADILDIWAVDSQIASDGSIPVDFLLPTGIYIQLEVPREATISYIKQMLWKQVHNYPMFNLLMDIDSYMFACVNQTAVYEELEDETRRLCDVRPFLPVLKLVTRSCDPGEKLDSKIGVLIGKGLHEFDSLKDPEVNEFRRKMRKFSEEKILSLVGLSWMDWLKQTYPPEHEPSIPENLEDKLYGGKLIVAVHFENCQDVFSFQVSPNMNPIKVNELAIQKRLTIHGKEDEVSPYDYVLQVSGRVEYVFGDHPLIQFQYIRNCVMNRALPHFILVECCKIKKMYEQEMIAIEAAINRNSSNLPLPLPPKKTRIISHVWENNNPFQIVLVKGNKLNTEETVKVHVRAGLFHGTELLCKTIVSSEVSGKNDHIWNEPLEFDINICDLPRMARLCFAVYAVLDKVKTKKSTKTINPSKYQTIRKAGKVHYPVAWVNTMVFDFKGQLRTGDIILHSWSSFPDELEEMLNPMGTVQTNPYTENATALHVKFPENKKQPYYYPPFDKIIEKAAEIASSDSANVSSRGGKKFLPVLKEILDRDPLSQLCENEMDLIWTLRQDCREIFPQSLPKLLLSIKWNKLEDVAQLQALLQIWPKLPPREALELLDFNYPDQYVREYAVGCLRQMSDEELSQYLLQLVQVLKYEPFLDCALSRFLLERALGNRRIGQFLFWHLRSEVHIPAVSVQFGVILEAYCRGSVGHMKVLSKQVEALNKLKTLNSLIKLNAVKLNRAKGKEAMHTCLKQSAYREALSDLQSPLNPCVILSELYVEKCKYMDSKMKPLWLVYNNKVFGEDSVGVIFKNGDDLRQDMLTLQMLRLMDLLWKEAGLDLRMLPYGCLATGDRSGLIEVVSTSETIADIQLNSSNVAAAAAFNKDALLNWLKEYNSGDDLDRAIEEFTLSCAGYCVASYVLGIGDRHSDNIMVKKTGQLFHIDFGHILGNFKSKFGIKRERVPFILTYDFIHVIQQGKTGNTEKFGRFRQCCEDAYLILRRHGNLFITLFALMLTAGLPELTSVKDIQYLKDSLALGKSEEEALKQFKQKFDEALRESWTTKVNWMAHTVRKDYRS
PI3-kinase p110-delta/p85-alpha, sequence (P27986 whole entry): as the sequence (P27986 whole entry) above
PI3-kinase p110-delta/p85-alpha, sequence (O00329 whole entry): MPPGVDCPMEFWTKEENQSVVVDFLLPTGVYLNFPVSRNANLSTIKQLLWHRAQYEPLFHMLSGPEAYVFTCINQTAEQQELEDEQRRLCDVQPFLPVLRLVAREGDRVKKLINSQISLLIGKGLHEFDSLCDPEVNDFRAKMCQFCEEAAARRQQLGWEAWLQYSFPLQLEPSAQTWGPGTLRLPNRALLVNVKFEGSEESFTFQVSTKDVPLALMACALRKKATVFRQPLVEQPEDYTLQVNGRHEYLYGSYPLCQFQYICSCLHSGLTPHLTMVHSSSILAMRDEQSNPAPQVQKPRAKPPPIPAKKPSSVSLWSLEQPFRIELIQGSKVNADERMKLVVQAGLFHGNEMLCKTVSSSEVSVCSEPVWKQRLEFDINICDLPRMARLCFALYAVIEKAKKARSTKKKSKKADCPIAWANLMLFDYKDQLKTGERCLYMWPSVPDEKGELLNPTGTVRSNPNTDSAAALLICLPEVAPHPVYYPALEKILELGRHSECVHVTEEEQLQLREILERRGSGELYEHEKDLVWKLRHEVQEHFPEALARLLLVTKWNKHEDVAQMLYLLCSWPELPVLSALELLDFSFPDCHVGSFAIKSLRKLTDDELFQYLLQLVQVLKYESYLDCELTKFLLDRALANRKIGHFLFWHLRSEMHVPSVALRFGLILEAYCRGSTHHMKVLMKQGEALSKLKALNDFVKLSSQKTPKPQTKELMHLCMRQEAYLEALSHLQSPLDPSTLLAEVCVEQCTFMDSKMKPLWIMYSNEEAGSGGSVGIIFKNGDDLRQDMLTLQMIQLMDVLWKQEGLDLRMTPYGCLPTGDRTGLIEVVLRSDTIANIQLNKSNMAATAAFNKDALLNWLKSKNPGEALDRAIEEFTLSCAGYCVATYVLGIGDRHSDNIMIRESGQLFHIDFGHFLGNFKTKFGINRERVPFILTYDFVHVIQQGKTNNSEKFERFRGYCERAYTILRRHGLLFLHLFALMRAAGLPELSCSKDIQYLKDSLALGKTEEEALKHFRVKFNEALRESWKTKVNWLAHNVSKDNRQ

Structure (SMILES): C[C@H](c1ccccc1)n1nnc2cnc3ccc(-c4ccc(OCCCN(C)C)nc4)cc3c21
- inhibition (SW-620 [1]): Active
- Activity (HCT-116 [2]): 63.63%
- IC50 [3]: 1030 nM
- fold change (FC) (SW-620 [4]): 4.4
- Activity (HCT-116 [5]): 2.77%
- Activity (SW-620 [6]): Active
- Activity (SW-620 [7]): Active
- Activity [8]: Non-Toxic
- Activity (SW-620 [9]): 6.3%
- Activity [10]: Non-Toxic
- IC50 [11]: > 10000 nM
- Activity (HCT-116 [12]): 34.21%
- Activity (SW-620 [13]): inactive
- inhibition [14]: inactive
- viability at 0.1 µM (HCT-116 [15]): 75.3%
- inhibition (SW-620 [16]): Active
- IC50 (PI3K p110 beta/p85 alpha): 1850 nM
- Activity (SW-620 [17]): 60.69%
- viability at 0.03 µM (SW-620 [18]): 47.2%
- Activity (SW-620 [19]): 1.63%
- viability at 0.03 µM (HCT-116 [20]): 25.7%
- viability at 1 µM (HCT-116 [21]): 62.1%
- Activity (SW-620 [22]): 2.76%
- inhibition [23]: Dose-Dependent Effect
- Activity (HCT-116 [24]): 8.88%

Reference: ChEMBL document CHEMBL5316381, “Discovery of [1,2,3]Triazolo[4,5-c]quinoline Derivatives as a New Class of Ataxia-Telangiectasia Mutated Kinase Inhibitors” (ACS Med Chem Lett, 2023)
